PubChem BioAssay AID1189 (EPA DSSTox, 2008)
Calls of active or inactive are those of the source.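 How the source made its calls: active means a tumor-causing dose value with its tumor site reported for any sex and species group of a rodent or other animal cancer study; inconclusive means only studies judged inadequate by the national testing program; inactive means tested in at least one study, none positive.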

Assay: DSSTox (CPDBAS) Carcinogenic Potency Database Summary SingleCellCall Results
Conditions: animal chronic carcinogenicity bioassays, CPDB summary call
Method in brief: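 Literature-derived summary: each substance receives an overall carcinogenic/non-carcinogenic category drawn from long-term bioassays in rats, mice, hamsters, dogs or primates, using the most positive sex-species experiment and minimal evidence criteria.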

SMILES | outcome
CC(=O)OCC(=O)[C@@]12N=C(C)O[C@@H]1C[C@H]1[C@@H]3CCC4=CC(=O)C=C[C@]4(C)[C@H]3[C@@H](O)C[C@@]12C | active
Cc1ccc(O)c(O)c1 | active; inactive
CC(=O)Nc1ccc2c(c1)Cc1ccccc1-2 | active
COc1cc2c(cc1N)oc1ccccc12 | active
O=C1NC(=O)C(c2ccccc2)(c2ccccc2)N1 | active
O=C1CN=C(c2ccccc2)c2cc(Cl)ccc2N1CC1CC1 | inactive
O=C1c2ccccc2-c2ccc3c4c(ccc1c24)-c1ccccc1C3=O | active; inactive
C/C=C/c1ccc(OC)cc1 | inactive
Clc1ccc(-c2cccc(Cl)c2Cl)c(Cl)c1 | active
NC(=O)N(CCCO)N=O | active; inactive
NC(=S)C(N)=S | inactive
O=NN1CCCCCCC1 | active
CC(O)CN(CC(O)CO)N=O (centres undefined) | active
O=NN1CCOC(O)C1 (centres undefined) | inactive; active
CCCN(CCC)c1ccc(N=Nc2cc[n+]([O-])cc2)cc1 | inactive
Clc1cccc(-c2cccc(Cl)c2)c1 | active
CCOC(=O)C(O)(c1ccc(Cl)cc1)c1ccc(Cl)cc1 | active
CCc1ccc(C(c2ccc(CC)cc2)C(Cl)Cl)cc1 | inactive
Cc1ccc(S(=O)(=O)Oc2ccc(N=Nc3ccc(-c4ccc(N=Nc5c(O)ccc6cc(S(=O)(=O)O)cc(S(=O)(=O)O)c56)c(C)c4)cc3C)cc2)cc1 | active
CCN(N=O)C(=O)NCCO | active
O=C1C(Cl)=C(Cl)C(=O)C(Cl)=C1Cl | inactive
OCC(CO)(CBr)CBr | active

SMILES | outcome
CC(C)CN(N=O)C(=N)N[N+](=O)[O-] | inactive
CCCC[C@H](C)[C@@H](OC(=O)C[C@H](CC(=O)O)C(=O)O)[C@@H](C[C@H](C)C[C@@H](O)CCCC[C@@H](O)C[C@H](O)[C@H](C)N)OC(=O)C[C@H](CC(=O)O)C(=O)O | active; inactive
Nc1cc(S(=O)(=O)O)cc2cc(S(=O)(=O)O)c(N=Nc3ccc(-c4ccc(N=Nc5c(S(=O)(=O)O)cc6cc(S(=O)(=O)O)cc(N)c6c5O)cc4)cc3)c(O)c12 | active
O=C(O)Cc1c[nH]c2ccccc12 | inactive
NC(CCC(=O)O)C(=O)O (centres undefined) | inactive; active
OCCN(CCO)CCO | active; inactive
CN(C)C=O | inactive; active
CC(C)OC(=O)Nc1cccc(Cl)c1 | inactive; active
CC1=C2C(=CO[C@@H](C)[C@@H]2C)C(=O)C(C(=O)O)=C1O | active
CCC1CO1 (centres undefined) | active; inactive
O=NN1CCOC1 | active; inactive
CN(C)C(=S)S | inactive
CS(=O)(=O)OCCCCOS(C)(=O)=O | inactive
O=NN1CCCCCC1 | active
C=CCOC(=O)c1ccccc1C(=O)OCC=C | inactive
CCN(CC)c1ccc(N=Nc2cc[n+]([O-])cc2)cc1 | active
Cc1cccc(C)c1NC(=O)CN1CCCC1=O | inactive
CN1C(=O)C(O)N=C(c2ccccc2)c2cc(Cl)ccc21 (centres undefined) | inactive
O=C(CCl)c1ccccc1 | inactive; active
OCC(O)CCl (centres undefined) | inactive
C1CO1 | active
CCC(O)OC(O)CC (centres undefined) | inactive

SMILES | outcome
CCN(CC)C(=O)Nc1ccc(OCC(O)CNC(C)(C)C)c(C(C)=O)c1 (centres undefined) | inactive; active
CN(C)C(=O)Nc1ccc(Cl)cc1 | active
Cc1ccc(S(=O)(=O)NC(=O)NN2CCCCCC2)cc1 | inactive
Nc1c(Cl)c(Cl)nc(C(=O)O)c1Cl | inactive
CC(=O)[O][Hg][c]1ccccc1 | inactive
CC(=O)Nc1ccc(N=Nc2cc(C)ccc2O)cc1 | active; inactive
NC(=O)OCC(COC(N)=O)c1ccccc1 | active; inactive
ClC1(Cl)C2(Cl)C3C4(Cl)C1(Cl)C1(Cl)C4(Cl)C(Cl)(Cl)C3(Cl)C21Cl (centres undefined) | active; inactive
Cc1c(COC(=O)C2C(/C=C(\Cl)C(F)(F)F)C2(C)C)cccc1-c1ccccc1 (centres undefined) | inactive; active
CS(=O)(=O)c1ccc([C@@H](O)[C@@H](CO)NC(=O)C(Cl)Cl)cc1 | inactive
CC/C=C(/CC)[N+](=O)[O-] | active
C=C(C)[C@H]1CC=C(C)CC1 | active
O=C(O)c1ccc([N+](=O)[O-])cc1 | active
CCCCCC(/C=C/C=C\CCCCCCCC(=O)OC)OO (centres undefined) | inactive
COP(=S)(OC)Oc1ccc(SC)c(C)c1 | inactive
O=C1CCc2ccccc2O1 | active; inactive
CC(C)(Oc1ccc(C2CC2(Cl)Cl)cc1)C(=O)O (centres undefined) | active
CC1(C)C(=O)NC(=O)NC1=O | inactive; active
CC(=O)NNC(C)=O | inactive
Cc1cc(O)c2c(c1)C(=O)c1cc(O)cc(O)c1C2=O | inactive; active
